Reference: patent publication US10829506B2, “Amino- or ammonium-containing sulfonic acid, phosphonic acid and carboxylic acid derivatives and their medical use” (GRI Bio, Inc., priority 2011, dated 2020)

Experiments:
BALB/c-mice = experiment: Local lymph node weight and cell count after TDI challenge; type: in vivo
Protocol: Directly after sacrifice, the ear draining lymph node (Ln. auricufaris) was prepared and excised. Organ weight was determined by means of an analytical balance (Kern, Balingen, Germany). Single cell suspensions were prepared by means of a glass potter (VWR, Darmstadt, Germany) and cells were counted with a hemocytometer (Neubauer, V W R, Germany).
One of the most undesirable side-effects of corticosteroid administration is immunosuppression, which leads to the inability to effectively address parasitic infection, wound healing and tumor growth. In the current study, the local lymph node reaction after TDI challenge (lymph node weight and cell number) was determined to assess the response of immune organs.

phospho-Akt Ser473 = experiment: Inhibition of Akt phosphorylation on Ser473 in IgE sensitized, antigen stimulated RBL-2H3 cells; type: cell-based, rat; settings: normalized to total Akt, IgE and antigen for 15 min
From the text: The mast cell degranulation assay using the RBL-2H3 cell line (see Example 27) was also used to determine the status of the PI3K/Akt axis. Activation of PI3K leads to production of PIP3 on the cytosolic side of the lipid bilayer. Akt is recruited to the PIP3 domain and subsequently activated by phosphorylation on residues Ser473 and Thr308. (Franke et al., Cell 81:727-736, (1995)). Once recruited to the membrane, it is phosphorylated and activated by other kinases (Hemmings, Science 275:628-630 (1997); Hemmings. Science 276:534 (1997); Downward, Science 279:673-674 (1998); Alessi et al., EMBO J. 15:6541-6551 (1996)). Western blotting of the phosphorylated Ser473 residue on Akt (phospho-Akt Ser473) is widely used to assess the level of activation of the PI3K/Akt axis.
All buffers and solutions used for the phosphor-Akt Ser473 assay were from Meso Scale Discovery. Tris Lysis Buffer consisted of 150 mM NaCl, 20 mM Tris, pH 7.5, 1 mM EDTA, 1 mM EGTA and 1% Triton-X-100. Complete Tris Lysis Buffer was prepared prior to use by addition of protease inhibitor, phosphatase inhibitors and PMSF. The 10x Tris Wash Buffer consisted of 500 mM Tris, pH 7.5, 1.5 M NaCl and 0.2% Tween-20. Blocker A was made up of bovine serum albumin in Tris Wash Buffer. Read Buffer T was used according to manufacturer's instructions. The Whole Cell Lysate Kits used were phospho-Akt Ser473 (K11100D. Lot K0011749) and total ERK½ (K11107D, Lot K0011698) as a loading control.
Protein assay: protein concentration was determined using the BCA (bicinchoninic acid) Protein Assay kit according to the manufacturer's instructions, Briefly, duplicate 10 μl samples of bovine serum albumin (BSA) standards, blank and lysates were incubated in a 96-well plate with 0.2 ml working reagent for 30 min at 37° C. Plates cooled to room temperature for 5 min and absorbance at 562 nm measured in a multi-mode plate reader. Protein concentrations were calculated using FlexStation 3 software (SoftMax Pro version 5.3). Protein concentration of lysates was determined from a standard curve (BSA) using a linear curve fit.
Phosphoprotein assay: protein phosphorylation was determined using the MULTI-SPOT® Assay System (Meso Scale Discovery), providing simultaneous detection of phosphorylated and total proteins. Briefly, capture antibodies against phosphorylated and total protein are patterned on distinct spots in the same well of 96-well plates. Sandwich immunoassay and electrochemiluminescence detection technology are combined to measure intensity of the emitted light from phosphorylated and total protein spots. For analysis of phosphor-Akt Ser473 was performed according to the manufacturer's instructions. The optimal amount of protein was determined at 5 μg lysate per well for ERK½ and 10 μg/well for phospho-Akt Ser473. Plates were blocked with 25 μl/well Blocker A for 1 h at room temperature with gentle agitation. During this time, the lysates were thawed and diluted to the desired protein concentration in complete Tris Lysis Buffer. Plates were washed four times in Tris Wash Buffer and 25 μl lysate per well added. Plates were incubated for 1-3 h at room temperature with agitation according to the manufacturer's recommendations. Plates were washed four times with Tris Wash Buffer, followed by addition of 25 μl/well of the respective detection antibody and incubation for 1 h at room temperature, with agitation. After a final four washes with Tris Wash Buffer 150 μl/well, Read Buffer T was added, and plates read on a SECTOR Imager 6000 plate reader.
The mean background signal from each plate was subtracted from averaged raw data. The amount of total protein phosphorylaled was expressed as % phosphoprotein according to the manufacturer's (Meso Scale Discovery) Instructions.
Levels of phospho-Akt Ser473 were determined in IgE sensitized and antigen stimulated cells after treatment without (positive control) or with 1, 5 and 25 μM test compound and normalized to levels of total Akt.

For `CCCCCCCCCCCCCC[N+](C)(C)CCCS(=O)(=O)[O-]` [Compound 1a, 3-(N,N-Dimethylmyristylammonio)-Propanesulfonate], the “Local lymph node reaction (lymph node weight and cell number)” value (BALB/c-mice; systemic treatment at 100 mg/kg) was “did not have any impact”, the “Local lymph node reaction (lymph node weight and cell number)” value (BALB/c-mice; topical treatment at 2% or 6%) was “did not have any impact” and the “Level of phospho-Akt Ser473” value (phospho-Akt Ser473; 1 μM) was 103.1 ± 17.4 % positive control. The “Level of phospho-Akt Ser473” value (phospho-Akt Ser473; 5 μM) was 57.0 ± 15.2 % positive control and the “Level of phospho-Akt Ser473” value (phospho-Akt Ser473; 25 μM) was 13.2 ± 4.2 % positive control.
